Test results taken from patent US9539221B2, “Method of treating airway diseases with β-adrenergic inverse agonists” (EGB ADVISORS, LLC, priority 2003, dated 2017).
Entries after “also recorded” stand apart in the source; their conditions may differ.

How the values were obtained:
tracheas from the mice = conditions: asthmatic mice chronically treated; WO 02/29534; cited from earlier work
β2-adrenergic receptor [1] = assay: β-adrenergic receptor density in lung membranes of treated asthmatic mice by ICYP radioligand binding; assay type: in vivo; conditions: 2 days of administration
Description: (§1) β2-adrenergic receptor numbers were measured in asthmatic mice as follows. […] Mice were sacrificed and lung membranes were isolated as follows. Frozen lung tissue was homogenized in an ice-cold buffer containing 0.32 M sucrose and 25 mM Tris (pH 7.4) using a polytron (Pro 200, Pro Scientific, Inc.). The homogenate was centrifuged at 1000×g for 10 min at 4° C. The resulting supernatant was centrifuged at 40,000×g for 20 min at 4° C. The pellet was suspended in an ice-cold 25 mM Tris-HCl buffer (pH 7.4) and centrifuged at 40,000×g for 20 min at 4° C. The final pellet was suspended in 200 μL of 25 mM Tris-HCl (pH 7.4); membrane protein concentration was determined by BCA protein assay kit. […] The incubation was done at 37° C. for 2 h and terminated by rapid vacuum filtration through glass fiber filters. The filters were washed three times with 250 μL of cold wash buffer (25 mM Tris-HCl, pH 7.4) and the radioactivity determined in a counter. […] Receptor densities are expressed as femtomoles of sites per milligram of protein. Bmax is determined by nonlinear regression of the saturation binding curves.

β2-adrenergic receptor [2] = target: β2-adrenergic receptor (Mus musculus, UniProt P18762); assay: as above; assay type: in vivo; conditions: for Bmax (β-adrenergic receptor density): 15 Minutes drug treatment
Chain of β2-adrenergic receptor (Mus musculus, UniProt P18762) (P18762 whole entry): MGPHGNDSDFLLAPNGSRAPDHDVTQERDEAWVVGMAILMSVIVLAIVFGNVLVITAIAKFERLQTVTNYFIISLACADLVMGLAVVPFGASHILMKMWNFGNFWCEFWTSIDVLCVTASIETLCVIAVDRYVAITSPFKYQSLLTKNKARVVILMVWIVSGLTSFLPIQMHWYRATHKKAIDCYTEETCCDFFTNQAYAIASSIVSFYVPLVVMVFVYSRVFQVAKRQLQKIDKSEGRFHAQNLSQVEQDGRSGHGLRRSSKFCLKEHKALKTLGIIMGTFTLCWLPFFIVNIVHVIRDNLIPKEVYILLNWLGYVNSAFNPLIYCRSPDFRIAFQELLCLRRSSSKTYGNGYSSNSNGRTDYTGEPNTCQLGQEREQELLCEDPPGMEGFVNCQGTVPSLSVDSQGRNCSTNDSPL
Description: as §1

asthmatic mice [3] = assay: Airway resistance (Raw) response to methacholine provocation in murine model of asthma (forced oscillation); assay type: in vivo, Balb/cJ mice
Description: Balb/cJ mice aged 6 weeks (Jackson Animal Laboratory, Bar Harbor, Me.) were housed under specific pathogen-free conditions and fed a chicken ovalbumin-free diet. The Animal Research Ethics Boards of both the University of Houston and the Baylor College of Medicine approved all experiments reported here. […] Mice were sensitized with subcutaneous injection of 25 μg of ovalbumin adsorbed to aluminum hydroxide on protocol days 2, 9, and 16. Subsequently, mice were given 50 μL of saline solution containing 25 μg of ovalbumin intranasally, on a daily basis, from protocol days 23 through 27. A group of ovalbumin-sensitized saline-challenged mice serves as controls for systemic sensitization and respiratory challenges with ovalbumin. Prior to intranasal administrations, mice were sedated with halothane vapor.
To examine the effects of duration of β-adrenergic ligand therapy on the phenotype of the murine model of asthma, the experimental drugs were administered either acutely or chronically to different groups of asthmatic mice.
Asthmatic mice on acute therapy were given a single intravenous bolus infusion of either β-adrenergic drug or normal saline on protocol day 28, 15 minutes before airway responsiveness to methacholine was determined. […] Asthmatic mice on chronic therapy were treated with the β-adrenergic drug during protocol days 1 to 28. […] These concentrations were chosen based on those producing therapeutic effects in mice in previously published studies. The non-asthmatic mice were fed normal chow.
On protocol day 28, mice were anesthetized, tracheotomized, and connected to a computer-controlled small animal ventilator (Flexivent, Scientific Respiratory Equipment, Inc., Montreal, Canada). Airway resistance (Raw) was measured using the forced oscillation technique. The cellular composition of bronchoalveolar lavage fluid (BALF) was also determined.
To induce airway constriction, a solution containing 150 μg/mL of acetyl-α-methylcholine chloride (methacholine) (Sigma Chemical, St. Louis, Mo.) was infused intravenously at constant rates using a syringe infusion pump (Raze Scientific Instruments, Stanford, Conn.). […] Each methacholine dose was administered for 3 to 5 minutes, during which data were sampled at 1-minute intervals and then averaged.
The complex input impedance of the respiratory system was computed and the value of the real part of respiratory system impedance at 19.75 Hz was taken to reflect the magnitude of airway resistance (Raw). To examine the degree of airway responsiveness of each animal, the values for Raw as a function of methacholine doses were plotted. The largest value for Raw achieved in response to methacholine stimulation was referred to as Rawpeak. For mice that achieved a plateau in the methacholine dose-Raw response curve, the ED50 was calculated by linear interpolation using the GraphPad Prism4 (GraphPad Software, Inc.). […] The Bonferroni test was used to examine the statistical differences between experimental groups. The effects of acute drug treatments on baseline respiratory system mechanics were assessed using a two-tailed paired t-test. A value of P<0.05 was considered significant.
For these experiments, salbutamol was used for chronic administration at 0.5 mg/kg/day with a minipump and for acute administration at 0.15 mg/kg by i.v. bolus 15 minutes prior to challenge. Alprenolol was used at a high dose of 7200 ppm in chow or at a low dose of 720 ppm in chow. Carvedilol was used at a high dose of 2400 ppm in chow or at a low dose of 720 ppm in chow.

patients with CHF = conditions: cited from earlier work
asthmatic mice [4] = assay: Combination therapy carvedilol and salbutamol on airway hyperresponsiveness; assay type: in vivo, Balb/cJ mice; conditions: 28 days carvedilol 2400 ppm in chow, alone or with salbutamol chronic (0.5 mg/kg/day) or acute ([…]); highest dose of methacholine
Description: Mice (Balb/cJ) aged 6 weeks were housed under specific pathogen-free conditions and fed a chicken ovalbumin-free diet. Mice were systemically sensitized with ovalbumin adsorbed to aluminum hydroxide. Mice were treated as follows: CAR/SAL 28D=for 28 days mice (n=6-12) were administered carvedilol (2400 ppm in animal chow) and salbutamol (subcutaneous delivery of 0.5 mg/kg/day in an Alzet #2400 osmotic minipump); NTX S/C=mice (n=6-12) no drug treatment for 28 days; CTRL=mice (n=6-12) no drug treatment for 28 days, not subsequently challenged; CARHD 28D=for 28 days mice (n=6-12) were administered carvedilol only (2400 ppm in animal chow); CARHD 28D SAL AC=for 28 days mice (n=6-12) were administered carvedilol (2400 ppm in animal chow) and 15 minutes prior to measuring airway hyperresponsiveness, salbutamol was administered at a dose of […].
To measure airway hyperresponsiveness after 28 days, all mice except the CTRL (control) mice were challenged with ovalbumin and then all mice were anesthetized, tracheotomized, and connected to a Flexivent small animal ventilator to measure airway resistance (Raw) by the forced oscillation technique. To induce airway constriction, a solution containing 150 μg/mL of methacholine was infused using a syringe infusion pump. The methacholine infusion was started at 0.008 mL/min and its rate was doubled stepwise up to a maximum […]. […]

β-adrenergic receptor = conditions: U.S. Pat. No. 5,116,867; cited from earlier work
[5] = acute administration; cited from earlier work
[6] = cited from earlier work
[7] = system: sensitized and allergen-challenged mice; assay: Acute nadolol with aminophylline, methacholine-induced bronchoconstriction; assay type: in vivo; conditions: aminophylline 100 mg/kg i.p. during methacholine; untreated and nadolol-treated mice
Description: Mice were sensitized to the allergen ovalbumin as described in Example 1. […] At time point 1 (time=−10 min) baseline airway resistance of the mice was determined. At time point 2 (time=−5 min) methacholine was infused into mice to reach their EC70.

asthmatic mice [8] = assay: Airway resistance (Raw) response to methacholine provocation in murine model of asthma (forced oscillation); assay type: in vivo, Balb/cJ mice; conditions: 7 days, metoprolol 20 mg/kg 3× daily subcutaneous, timolol 20 mg/kg in chow
[9] = large trial; cited from earlier work
[10] = lung membranes of asthmatic mice, mean±SEM
[11] = 28 Days drug treatment, lung membranes of asthmatic mice, mean±SEM
[12] = asthmatic mice, chronic: 28 days (chow; salbutamol by osmotic minipump)

SMILES: C=CCc1ccccc1OCC(O)CNC(C)C (stereo not shown) [Alprenolol, alprenolol]
- effectiveness on contraction of excised tracheas in response to methacholine (rank) (tracheas from the mice): most effective compound
- Increased β2AR density (β2-adrenergic receptor [1]): no
- Bmax (β-adrenergic receptor density) (β2-adrenergic receptor [2]; [10]): 299.5 ± 12.19 femtomoles of sites per milligram of protein
- βmax (β-adrenergic receptor density) (β2-adrenergic receptor [2]; [11]): 179.2 ± 53.05 femtomoles of sites per milligram of protein
- airway responsiveness to methacholine provocation (airway resistance, Raw) (asthmatic mice [3]; [12]): does not reduce airway hyperresponsiveness compared to untreated asthmatic mice; also recorded: provides no benefit upon chronic administration

SMILES: CC(C)(Cc1c[nH]c2ccccc12)NCC(O)COc1ccccc1C#N (stereo not shown) [Bucindolol, bucindolol]
- clinical benefit in congestive heart failure (patients with CHF): failed to demonstrate any benefit over placebo

SMILES: COc1ccccc1OCCNCC(O)COc1cccc2[nH]c3ccccc3c12 (stereo not shown) [Carvedilol, carvedilol]
- bronchoconstriction / airway hyperresponsiveness to methacholine (asthmatic mice [4]): higher bronchoconstriction than these treatments but less than the non-drug treated sensitized and challenged (NTX S/C) mice
- Increased β2AR density (β2-adrenergic receptor [1]): no
- Bmax (β-adrenergic receptor density) (β2-adrenergic receptor [2]; [10]): 86.3 ± 19.42 femtomoles of sites per milligram of protein
- βmax (β-adrenergic receptor density) (β2-adrenergic receptor [2]; [11]): 904.1 ± 43.46 femtomoles of sites per milligram of protein
- Increased β2AR density (β2-adrenergic receptor [2]; 28 days of administration): showed an increase in receptor density
- increase of the level of β2-adrenergic receptors over the non-treated mice (β2-adrenergic receptor [2]; chronic administration, versus untreated methacholine-challenged asthmatic mice): over 10 fold
- sensitivity of the responsiveness to methacholine (asthmatic mice [3]; asthmatic mice, chronic administration): shifts the sensitivity of the responsiveness to methacholine to lower concentrations
- airway responsiveness to methacholine provocation (airway resistance, Raw) (asthmatic mice [3]; [12]): does reduce airway hyperresponsiveness; also recorded: reduced the responsiveness of asthmatic mice to methacholine provocation
- protection from airway hyperresponsiveness (asthmatic mice [3]; chronic administration, high and low dose in chow (Example 6)): providing protection from airway hyperresponsiveness
- clinical benefit in congestive heart failure (patients with CHF): significant mortality reduction

SMILES: CC(C)NC[C@@H](O)COc1cccc2ccccc12 [D-propranolol]
- potency in inhibiting the β-adrenergic receptor relative to the L-form (β-adrenergic receptor): 1/100
- antigen-induced bronchoconstriction and airway hyperresponsiveness [5]: beneficial in inhibiting antigen-induced bronchoconstriction and reducing airway hyperresponsiveness

SMILES: Cc1ccc(OCC(O)C(C)NC(C)C)c2c1CCC2 (stereo not shown) [ICI-118,551]
- effectiveness on contraction of excised tracheas in response to methacholine (rank) (tracheas from the mice): then ICI-118,551

SMILES: CC(C)NC[C@H](O)COc1cccc2ccccc12 [L-form, propranolol]
- specific lung resistance [5]: increased specific lung resistance

SMILES: CC(C)(C)NCC(O)c1ccc(O)c(CO)c1 (stereo not shown) [Salbutamol, salbutamol]
- Increased β2AR density (β2-adrenergic receptor [1]): no
- Bmax (β-adrenergic receptor density) (β2-adrenergic receptor [2]; [10]): 256.5 ± 29.24 femtomoles of sites per milligram of protein
- βmax (β-adrenergic receptor density) (β2-adrenergic receptor [2]; [11]): 97.0 ± 23.02 femtomoles of sites per milligram of protein
- Kd (β2-adrenergic receptor [2]; 28 Days drug treatment, lung membranes of asthmatic mice, mean±SEM, read-out: KD (apparent, of radioligand ICYP)): 0.225 nM
- bioavailability of inhaled drug ([6]; 10 patients with cystic fibrosis versus healthy adults): greater than that in healthy adults
- airway responsiveness to methacholine provocation (airway resistance, Raw) (asthmatic mice [3]; asthmatic mice, acute: single intravenous bolus 15 minutes before methacholine): reduced the level of airway responsiveness to methacholine provocation and the level of airway resistance
- airway responsiveness to methacholine provocation (airway resistance, Raw) (asthmatic mice [3]; [12]): no protection was observed

SMILES: Cn1c(=O)c2[nH]cnc2n(C)c1=O [aminophylline]
- airway resistance after aminophylline administration [7]: significant and sustained drop in airway resistance; also recorded: can alleviate the acute effects on airway hyperresponsiveness of nadolol administration

SMILES: CCCC1O[C@@H]2C[C@H]3[C@@H]4CCC5=CC(=O)C=C[C@]5(C)[C@H]4[C@@H](O)C[C@]3(C)[C@]2(C(=O)CO)O1 (stereo partly shown) [budesonide]
- plasma clearance of the 2 enantiomers per kilogram of bodyweight, children versus adults ([6]; 6 children with asthma versus 11 healthy adults): about 50%

SMILES: COCCc1ccc(OCC(O)CNC(C)C)cc1 (stereo not shown) [metoprolol]
- airway hyperresponsiveness (Raw) to methacholine (asthmatic mice [8]): effective in reducing airway hyperresponsiveness in asthmatic mice
- clinical benefit in congestive heart failure (patients with CHF): significant mortality reduction

SMILES: OCc1cc(C(O)CNCCCCCCOCCCCc2ccccc2)ccc1O (stereo not shown) [salmeterol]
- death rates [9]: stopped due to increased death rates

SMILES: CC(C)(C)NCC(O)c1cc(O)cc(O)c1 (stereo not shown) [terbutaline]
- rate of absorption through the lung ([6]; healthy smokers versus healthy nonsmokers): more rapidly in healthy smokers than in healthy nonsmokers

SMILES: CC(C)(C)NC[C@H](O)COc1nsnc1N1CCOCC1 [timolol]
- airway hyperresponsiveness (Raw) to methacholine (asthmatic mice [8]): effective in reducing airway hyperresponsiveness in asthmatic mice
